Biological target: T1, Human CaV2.2 channels (Homo sapiens, UniProt Q00975)
T1 construct: expressed in transfected cells
Assay: Fluorescent assay for CaV2.2 channels using potassium depolarization to induce channel opening (FLIPR, Fluo-4)
Type: cell-based
Conditions: 3 μM test compound, 30 mM KCl, HEK293 cells stably expressing human CaV2.2; read-out: %-Inhib (CaV2.2) @3 μM @30 mM KCl
From the text: In the process, the Ca^2+ influx is quantified in the FLIPR assay with the aid of a Ca^2+-sensitive dye (type Fluo-4, Molecular Probes Europe BV, Leiden, the Netherlands) in a fluorescent imaging plate reader (FLIPR 3, Molecular Devices, Sunnyvale, USA), as described hereinafter.
2.1 Fluorescent Assay for CaV2.2 Channels Using Potassium Depolarization to Induce Channel Opening
Human CaV2.2 channels were stably expressed in HEK293 cells together with alpha2-delta and beta subunits of voltage gated calcium channels. In addition, an inwardly rectifying potassium channel (Kir2.3) was stably expressed in these cells to augment control of the cell membrane potential by the concentration of extracellular potassium ions. Raise of the extracellular potassium concentration leads to depolarization of the membrane potential and thus regulates the voltage dependent state of CaV2.2 channels. For preparation, cells were seeded in black poly-D-lysine coated 96-well plates (Becton Dickinson, Biocoat 4640) in 100 μl medium [500 ml DMEM/F-12 plus Glutamax (Invitrogen 31331-093) plus 5.5 ml MEM NEAA 100× (Invitrogen 11140-035) plus 50 ml FBS decomplemented (Invitrogen 10270-106) plus 4.4 ml Geneticin (Invitrogen 10131-027) plus 1.1 ml Hygromycin B (Invitrogen 10687-010) plus 68.75 μl Puromycin (Clontech, 631306)] at a cell density of 45.000 cells per well.
Plates were incubated at 37° C. (5% CO2) for 20 to 23 hours. On the day of experiment medium was discarded and cells were loaded with Fluo 4 by addition of 100 μl of basic assay buffer (10 mM HEPES, 30 mM KCl, 120 mM NaCl, 0.8 mM CaCl2, 1.7 mM MgCl2, 10 mM Glucose, 0.1% BSA. pH 7.4) containing 2 μM Fluo 4 (Molecular Probes; F-14201), 0.01% pluronic acid (Molecular Probes; P-6866) and 2.5 mM probenecid (Molecular Probes; P36400). Cells were incubated in the dark at 25° C. for 60 min. Then the dye containing buffer was discarded and 100 μl basic assay buffer was added. Subsequently cells were incubated in the dark at 25° C. for 15 min. 25 μl of basic assay buffer with or without test compound were added and cells were incubated again in the dark at 25° C. for 15 min. Fluorescence intensity was measured on a FLIPR 3 instrument (Molecular Devices Corp., Sunnyvale, Calif.) with excitation at 480 nm and emission at 535 nm. After continuously reading fluorescence for 30 sec, 50 μl of basic assay buffer containing 210 mM KCl (NaCl omitted) were added for depolarization. Peak fluorescent signal intensity was determined and the amplitude of the peak signal, normalized to base line, was used to measure channel inhibition by test compounds.

T1 sequence (Q00975 whole entry): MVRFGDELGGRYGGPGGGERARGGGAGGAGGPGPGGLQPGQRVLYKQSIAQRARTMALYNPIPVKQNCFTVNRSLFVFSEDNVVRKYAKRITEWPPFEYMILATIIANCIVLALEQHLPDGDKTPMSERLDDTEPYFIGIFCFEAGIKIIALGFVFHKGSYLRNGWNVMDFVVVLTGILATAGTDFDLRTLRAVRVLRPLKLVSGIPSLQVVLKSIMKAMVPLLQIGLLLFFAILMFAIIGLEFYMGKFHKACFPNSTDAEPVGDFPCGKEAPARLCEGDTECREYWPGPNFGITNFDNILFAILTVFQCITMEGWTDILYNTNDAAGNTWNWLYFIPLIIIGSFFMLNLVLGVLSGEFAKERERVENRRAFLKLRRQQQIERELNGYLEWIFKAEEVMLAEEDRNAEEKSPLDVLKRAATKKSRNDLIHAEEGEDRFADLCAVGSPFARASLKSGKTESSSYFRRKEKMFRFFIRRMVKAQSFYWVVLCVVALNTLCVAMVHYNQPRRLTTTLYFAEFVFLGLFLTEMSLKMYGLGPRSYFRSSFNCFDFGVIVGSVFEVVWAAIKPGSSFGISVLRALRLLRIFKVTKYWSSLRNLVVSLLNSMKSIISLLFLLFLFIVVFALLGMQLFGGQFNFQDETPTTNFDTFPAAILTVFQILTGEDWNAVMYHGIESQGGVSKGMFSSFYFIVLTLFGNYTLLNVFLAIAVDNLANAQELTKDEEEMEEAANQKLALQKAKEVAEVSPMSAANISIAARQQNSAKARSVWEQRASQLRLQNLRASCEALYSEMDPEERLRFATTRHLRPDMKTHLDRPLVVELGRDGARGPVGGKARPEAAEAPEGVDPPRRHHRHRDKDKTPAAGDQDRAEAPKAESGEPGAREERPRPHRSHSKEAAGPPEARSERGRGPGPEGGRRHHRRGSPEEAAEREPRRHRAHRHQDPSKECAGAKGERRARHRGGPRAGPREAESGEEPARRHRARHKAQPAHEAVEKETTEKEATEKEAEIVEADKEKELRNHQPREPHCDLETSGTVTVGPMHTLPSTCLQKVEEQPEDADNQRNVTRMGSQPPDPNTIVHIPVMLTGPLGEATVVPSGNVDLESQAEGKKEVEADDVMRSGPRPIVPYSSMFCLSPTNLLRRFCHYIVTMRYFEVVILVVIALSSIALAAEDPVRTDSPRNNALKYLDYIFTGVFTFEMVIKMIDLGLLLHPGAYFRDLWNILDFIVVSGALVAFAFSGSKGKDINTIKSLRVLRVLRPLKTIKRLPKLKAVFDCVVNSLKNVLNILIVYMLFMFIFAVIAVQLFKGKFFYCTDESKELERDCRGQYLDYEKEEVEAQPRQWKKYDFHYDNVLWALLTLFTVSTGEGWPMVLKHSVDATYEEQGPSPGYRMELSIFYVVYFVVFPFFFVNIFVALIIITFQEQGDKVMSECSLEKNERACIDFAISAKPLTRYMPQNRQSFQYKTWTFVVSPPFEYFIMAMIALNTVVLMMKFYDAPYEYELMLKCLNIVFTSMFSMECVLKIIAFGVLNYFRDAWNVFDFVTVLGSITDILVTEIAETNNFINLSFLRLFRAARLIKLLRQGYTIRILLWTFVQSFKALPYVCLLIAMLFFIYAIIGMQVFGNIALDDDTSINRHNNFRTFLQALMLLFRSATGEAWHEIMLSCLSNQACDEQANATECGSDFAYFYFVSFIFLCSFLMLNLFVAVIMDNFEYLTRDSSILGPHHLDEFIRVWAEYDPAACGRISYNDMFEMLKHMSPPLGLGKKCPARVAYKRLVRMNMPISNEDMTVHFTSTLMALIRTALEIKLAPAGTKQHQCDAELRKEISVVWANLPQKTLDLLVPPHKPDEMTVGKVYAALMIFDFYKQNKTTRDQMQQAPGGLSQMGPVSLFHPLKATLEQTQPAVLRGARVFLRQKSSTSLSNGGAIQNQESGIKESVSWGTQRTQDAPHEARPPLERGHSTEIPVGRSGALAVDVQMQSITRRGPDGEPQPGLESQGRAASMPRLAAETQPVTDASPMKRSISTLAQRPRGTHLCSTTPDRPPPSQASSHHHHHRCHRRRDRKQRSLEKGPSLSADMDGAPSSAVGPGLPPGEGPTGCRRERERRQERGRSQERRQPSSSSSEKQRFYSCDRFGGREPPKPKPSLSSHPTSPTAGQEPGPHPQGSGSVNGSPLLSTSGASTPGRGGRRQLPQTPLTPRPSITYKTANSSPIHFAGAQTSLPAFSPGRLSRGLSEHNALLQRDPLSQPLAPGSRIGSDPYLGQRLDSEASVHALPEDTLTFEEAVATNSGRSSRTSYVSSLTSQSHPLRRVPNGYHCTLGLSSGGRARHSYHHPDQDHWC
T1 sequence (P54289 25-1103, further chain): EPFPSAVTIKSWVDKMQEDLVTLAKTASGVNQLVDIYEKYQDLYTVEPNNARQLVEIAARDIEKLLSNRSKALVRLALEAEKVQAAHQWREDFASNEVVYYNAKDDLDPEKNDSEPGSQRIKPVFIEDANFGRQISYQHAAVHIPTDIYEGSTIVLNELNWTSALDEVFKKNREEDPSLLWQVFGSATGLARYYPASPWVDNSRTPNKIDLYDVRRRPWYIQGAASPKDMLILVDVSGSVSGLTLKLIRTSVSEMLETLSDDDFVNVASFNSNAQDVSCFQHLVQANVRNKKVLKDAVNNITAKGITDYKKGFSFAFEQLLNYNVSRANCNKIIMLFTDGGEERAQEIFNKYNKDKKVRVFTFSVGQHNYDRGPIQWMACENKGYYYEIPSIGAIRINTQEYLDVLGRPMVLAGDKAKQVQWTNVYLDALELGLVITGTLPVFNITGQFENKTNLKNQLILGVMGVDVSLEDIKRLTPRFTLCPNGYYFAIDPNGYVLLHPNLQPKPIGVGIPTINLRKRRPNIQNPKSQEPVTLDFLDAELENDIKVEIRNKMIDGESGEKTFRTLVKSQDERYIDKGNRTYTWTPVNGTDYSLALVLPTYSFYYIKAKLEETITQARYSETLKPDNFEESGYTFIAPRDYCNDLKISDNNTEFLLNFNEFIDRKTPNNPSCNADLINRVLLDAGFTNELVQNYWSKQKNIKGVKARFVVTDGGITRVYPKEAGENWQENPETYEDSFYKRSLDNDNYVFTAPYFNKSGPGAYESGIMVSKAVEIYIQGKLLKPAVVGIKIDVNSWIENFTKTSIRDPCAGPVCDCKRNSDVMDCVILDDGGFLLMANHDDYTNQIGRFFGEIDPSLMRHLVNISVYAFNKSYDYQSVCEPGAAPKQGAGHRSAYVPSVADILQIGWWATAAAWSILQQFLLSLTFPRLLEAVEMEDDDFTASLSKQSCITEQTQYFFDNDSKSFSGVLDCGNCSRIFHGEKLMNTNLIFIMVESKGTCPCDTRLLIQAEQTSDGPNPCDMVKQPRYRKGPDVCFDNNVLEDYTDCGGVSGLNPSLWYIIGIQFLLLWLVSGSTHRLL
T1 sequence (P54284 whole entry, further chain): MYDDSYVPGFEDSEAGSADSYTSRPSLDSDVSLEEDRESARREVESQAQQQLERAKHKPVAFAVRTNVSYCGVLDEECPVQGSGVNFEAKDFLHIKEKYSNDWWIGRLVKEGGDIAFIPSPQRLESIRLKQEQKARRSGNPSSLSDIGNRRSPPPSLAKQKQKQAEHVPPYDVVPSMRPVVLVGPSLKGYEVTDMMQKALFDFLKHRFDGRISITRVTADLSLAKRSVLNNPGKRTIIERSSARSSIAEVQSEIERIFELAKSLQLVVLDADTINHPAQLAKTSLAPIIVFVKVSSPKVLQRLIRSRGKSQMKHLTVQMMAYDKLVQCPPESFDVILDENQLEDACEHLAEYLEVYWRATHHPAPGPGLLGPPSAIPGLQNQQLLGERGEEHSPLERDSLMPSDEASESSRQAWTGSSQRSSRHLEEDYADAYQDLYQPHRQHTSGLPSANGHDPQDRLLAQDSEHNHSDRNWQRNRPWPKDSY

| Structure (SMILES) | inhibition at 3 µM [%] |
| --- | --- |
| Cc1c(-c2ccc(C(F)(F)F)cc2)c(C(=O)N(C)C(C)(C)CO)n(Cc2ccccc2)c1C(F)(F)F [SC-231, 1-Benzyl-N-(2-hydroxy-1,1-dimethyl-ethyl)-N,4-dimethyl-5-(trifluoromethyl)-3-[4-(trifluoromethyl)-phenyl]-1H-pyrrole-2-carboxylic acid amide] | > 95 |
| Cc1c(-c2ccc(Cl)cc2)c(C(=O)N2CCC(CO)C2)n(Cc2ccccc2)c1C(F)(F)F (stereo not shown) [SC-117, [1-Benzyl-3-(4-chlorophenyl)-4-methyl-5-(trifluoromethyl)-1H-pyrrol-2-yl]-[3-(hydroxymethyl)-pyrrolidin-1-yl]-methanone] | 75 to 95 |
| Cc1c(-c2ccc(OC(F)(F)F)cc2)c(C(=O)N(C)C2CC2)n(Cc2ccccc2)c1C(F)(F)F [SC-238, 1-Benzyl-N-cyclopropyl-N,4-dimethyl-5-(trifluoromethyl)-3-[4-(trifluoromethyloxy)-phenyl]-1H-pyrrole-2-carboxylic acid amide] | 40 to 75 |
| CC(C)NC(=O)c1c(-c2ccc(Cl)cc2)cc(C(F)(F)F)n1Cc1ccccc1 [SC-214, 1-Benzyl-3-(4-chlorophenyl)-N-isopropyl-5-(trifluoromethyl)-1H-pyrrole-2-carboxylic acid amide] | 75 to 95 |
| Cc1c(-c2ccc(F)cc2)c(C(=O)N(C)C(C)(C)CO)n(Cc2ccccc2)c1C(F)(F)F [SC-222, 1-Benzyl-3-(4-fluorophenyl)-N-(2-hydroxy-1,1-dimethyl-ethyl)-N,4-dimethyl-5-(trifluoromethyl)-1H-pyrrole-2-carboxylic acid amide] | > 95 |
| CN(CC1(C)COC1)C(=O)c1c(-c2ccc(Cl)cc2)cc(C(F)(F)F)n1Cc1ccccc1 [SC-78, 1-Benzyl-3-(4-chlorophenyl)-N-methyl-N-[(3-methyl-oxetan-3-yl)-methyl]-5-(trifluoromethyl)-1H-pyrrole-2-carboxylic acid amide] | > 95 |
| CN(CC(C)(C)C)C(=O)c1c(-c2ccc(Cl)cc2)c(C2CC2)c(C(F)(F)F)n1Cc1ccccc1 [SC-120, 1-Benzyl-3-(4-chlorophenyl)-4-cyclopropyl-N-(2,2-dimethyl-propyl)-N-methyl-5-(trifluoromethyl)-1H-pyrrole-2-carboxylic acid amide] | 75 to 95 |
| Cc1c(-c2ccc(Cl)cc2)c(C(=O)N(C)C(C)CS(C)(=O)=O)n(Cc2ccccc2)c1C(F)(F)F (stereo not shown) [SC-141, 1-Benzyl-3-(4-chlorophenyl)-N,4-dimethyl-N-(1-methyl-2-methylsulfonyl-ethyl)-5-(trifluoromethyl)-1H-pyrrole-2-carboxylic acid amide] | > 95 |
| Cc1c(-c2ccc(C(F)(F)F)cc2)c(C(=O)N(C)C2CCOCC2)n(Cc2ccccc2)c1C(F)(F)F [SC-229, 1-Benzyl-N,4-dimethyl-N-tetrahydro-pyran-4-yl-5-(trifluoromethyl)-3-[4-(trifluoromethyl)-phenyl]-1H-pyrrole-2-carboxylic acid amide] | 75 to 95 |
| Cc1c(-c2ccc(Cl)cc2)c(C(=O)N(C)Cc2ccnc(N(C)C)n2)n(Cc2ccccc2)c1C(F)(F)F [SC-147, 1-Benzyl-3-(4-chlorophenyl)-N-[(2-dimethylamino-pyrimidin-4-yl)-methyl]-N,4-dimethyl-5-(trifluoromethyl)-1H-pyrrole-2-carboxylic acid amide] | 75 to 95 |
| Cc1c(-c2ccc(Cl)cc2)c(C(=O)N(C)CC(C)(C)CO)n(Cc2ccccc2)c1C(F)(F)F [SC-106, 1-Benzyl-3-(4-chlorophenyl)-N-(3-hydroxy-2,2-dimethyl-propyl)-N,4-dimethyl-5-(trifluoromethyl)-1H-pyrrole-2-carboxylic acid amide] | > 95 |
| Cc1c(-c2ccc(Cl)cc2)c(C(=O)N(C)C2CCN(C)CC2)n(Cc2ccccc2)c1C(F)(F)F [SC-39, 1-Benzyl-3-(4-chlorophenyl)-N,4-dimethyl-N-(1-methyl-piperidin-4-yl)-5-(trifluoromethyl)-1H-pyrrole-2-carboxylic acid amide] | > 95 |
| Cc1c(-c2ccc(F)c(Cl)c2)c(C(=O)N(C)C2CC2)n(Cc2ccccc2)c1C(F)(F)F [SC-254, 1-Benzyl-3-(3-chloro-4-fluoro-phenyl)-N-cyclopropyl-N,4-dimethyl-5-(trifluoromethyl)-1H-pyrrole-2-carboxylic acid amide] | 75 to 95 |
| Cc1c(-c2ccc(Cl)cc2F)c(C(=O)N(C)CC2CCOC2)n(Cc2ccccc2)c1C(F)(F)F (stereo not shown) [SC-167, 1-Benzyl-3-(4-chloro-2-fluoro-phenyl)-N,4-dimethyl-N-(tetrahydro-furan-3-yl-methyl)-5-(trifluoromethyl)-1H-pyrrole-2-carboxylic acid amide] | > 95 |
| Cc1c(-c2ccc(Cl)c(F)c2)c(C(=O)N(C)C2CC2)n(Cc2ccccc2)c1C(F)(F)F [SC-246, 1-Benzyl-3-(4-chloro-3-fluoro-phenyl)-N-cyclopropyl-N,4-dimethyl-5-(trifluoromethyl)-1H-pyrrole-2-carboxylic acid amide] | 75 to 95 |
| Cc1c(-c2ccc(Cl)cc2)c(C(=O)N2CCOC(C)(C)C2)n(Cc2ccccc2)c1C(F)(F)F [SC-40, [1-Benzyl-3-(4-chlorophenyl)-4-methyl-5-(trifluoromethyl)-1H-pyrrol-2-yl]-(2,2-dimethyl-morpholin-4-yl)-methanone] | > 95 |
| Cc1c(-c2ccc(Cl)cc2)c(C(=O)N(C)C)n(Cc2ccccc2)c1C(F)(F)F [SC-18, 1-Benzyl-3-(4-chlorophenyl)-N,N,4-trimethyl-5-(trifluoromethyl)-1H-pyrrole-2-carboxylic acid amide] | 75 to 95 |
| Cc1c(-c2ccc(F)c(Cl)c2)c(C(=O)N(C)C2CCOCC2)n(Cc2ccccc2)c1C(F)(F)F [SC-253, 1-Benzyl-3-(3-chloro-4-fluoro-phenyl)-N,4-dimethyl-N-tetrahydro-pyran-4-yl-5-(trifluoromethyl)-1H-pyrrole-2-carboxylic acid amide] | > 95 |
| CN(CCS(C)(=O)=O)C(=O)c1c(-c2ccc(Cl)cc2)cc(C(F)(F)F)n1Cc1cccc(Cl)c1 [SC-69, 3-(4-Chlorophenyl)-1-[(3-chlorophenyl)-methyl]-N-methyl-N-(2-methylsulfonyl-ethyl)-5-(trifluoromethyl)-1H-pyrrole-2-carboxylic acid amide] | 75 to 95 |
| CN(CC(C)(C)CO)C(=O)c1c(-c2ccc(Cl)cc2)cc(C(F)(F)F)n1Cc1ccccc1 [SC-79, 1-Benzyl-3-(4-chlorophenyl)-N-(3-hydroxy-2,2-dimethyl-propyl)-N-methyl-5-(trifluoromethyl)-1H-pyrrole-2-carboxylic acid amide] | > 95 |
| Cc1c(-c2ccc(Cl)cc2)c(C(=O)N2CC(O)C2)n(Cc2ccccc2)c1C(F)(F)F [SC-05, [1-Benzyl-3-(4-chlorophenyl)-4-methyl-5-(trifluoromethyl)-1H-pyrrol-2-yl]-(3-hydroxy-azetidin-1-yl)-methanone] | 75 to 95 |
| CN(Cc1cnc(N(C)C)nc1)C(=O)c1c(-c2ccc(Cl)cc2)cc(C(F)(F)F)n1Cc1ccccc1 [SC-216, 1-Benzyl-3-(4-chlorophenyl)-N-[(2-dimethylamino-pyrimidin-5-yl)-methyl]-N-methyl-5-(trifluoromethyl)-1H-pyrrole-2-carboxylic acid amide] | 75 to 95 |

— patent publication US9302988B2, “Fluoromethyl-substituted pyrrole carboxamides” (GRÜNENTHAL GMBH, priority 2012, dated 2016)
